Measurements reported in patent US9302999B2, “Substituted triazoles as herbicides” (E. I. DU PONT DE NEMOURS AND COMPANY, priority 2012, dated 2016).

Assays:
Type in all cases: in vivo
[1] = tested on: barnyardgrass (Echinochloa crus-galli); test: Test B flooded paddy: barnyardgrass; settings: Flood, applied to paddy water at 2-leaf stage, visually evaluated after 13 to 15 days
In short: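 Response scored visually, 0–100 relative to controls, 13–15 days after the compound was applied into paddy water; plants were at the 2-leaf stage in pots kept flooded to 3 cm.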

[2] = tested on: woolly cupgrass (Eriochloa villosa); test: Test C pre-/postemergence: woolly cupgrass
In short: (§1)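 Preemergence on seeds in loam/sand, postemergence on 2–18 cm (1–4-leaf) plants in peat-based medium; compounds in non-phytotoxic solvent with surfactant. After 13–15 days in greenhouse, visual rating versus controls, 0 (no effect) to 100 (complete control).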

[3] = tested on: Russian thistle (Salsola kali); test: Test C pre-/postemergence: Russian thistle; settings: Preemergence
In short: as §1

[4] = tested on: deadnettle (henbit deadnettle, Lamium amplexicaule); test: Test C postemergence: deadnettle
In short: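 Greenhouse pot test; foliar postemergence treatment at 1- to 4-leaf stage. Rated visually at 13 to 15 days on a 0–100 control scale relative to untreated plants.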

[5] = tested on: chickweed (common chickweed, Stellaria media); test: Test D pre-/postemergence: chickweed; settings: Postemergence; for Plant response rating, Chickweed: scale 0 to 100
In short: (§2)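 Visual control ratings (0–100) after 14–21 days, controlled environment. Preemergence on silt loam; postemergence on 2–18 cm plants.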

[6] = tested on: pigweed (Amaranthus retroflexus); test: Test D pre-/postemergence: pigweed
In short: as §2

[7] = tested on: speedwell (bird's-eye speedwell, Veronica persica); test: Test D pre-/postemergence: speedwell
In short: as §2

[8] = tested on: barley, winter (winter barley, Hordeum vulgare); test: Test D pre-/postemergence: barley, winter
In short: as §2

Oilseed Rape = test: Test C pre-/postemergence: oilseed rape
Source text: Seeds of plant species selected from blackgrass (Alopecurus myosuroides), bromegrass, downy (downy bromegrass, Bromus tectorum), foxtail, green (green foxtail, Setaria viridis), ryegrass, Italian (Italian ryegrass, Lolium multiflorum), winter wheat (Triticum aestivum), wild oat (Avena fatua), galium (catchweed bedstraw, Galium aparine), bermudagrass (Cynodon dactylon), surinam grass (Brachiaria decumbens), cocklebur (common cocklebur, Xanthium strumarium), corn (Zea mays), large crabgrass (Digitaria sanguinalis), woolly cupgrass (Eriochloa villosa), foxtail, giant (giant foxtail, Setaria faberii), goosegrass (Eleusine indica), johnsongrass (Sorghum halepense), kochia (Kochia scoparia), lambsquarters (Chenopodium album), morningglory (Ipomoea coccinea), nightshade (eastern black nightshade, Solanum ptycanthum), nutsedge, yellow (yellow nutsedge, Cyperus esculentus), pigweed (Amaranthus retroflexus), ragweed (common ragweed, Ambrosia elation), soybean (Glycine max), common (oilseed) sunflower (Helianthus annuus), Russian thistle (Salsola kali) and velvetleaf (Abutilon theophrasti) were planted into a blend of loam soil and sand and treated preemergence with test chemicals formulated in a non-phytotoxic solvent mixture which included a surfactant.
At the same time, plants selected from these crop and weed species and also barley (winter barley, Hordeum vulgare), canarygrass (Phalaris minor), chickweed (common chickweed, Stellaria media) windgrass (Apera spica-venti) and deadnettle (henbit deadnettle, Lamium amplexicaule) were planted in pots containing Redi-Earth® planting medium (Scotts Company, 14111 Scottslawn Road, Marysville, Ohio 43041) comprising spaghnum peat moss, vermiculite, wetting agent and starter nutrients and treated with postemergence applications of test chemicals formulated in the same manner. Plants ranged in height from 2 to 18 cm (1- to 4-leaf stage) for postemergence treatments.
Treated plants and controls were maintained in a greenhouse for 13 to 15 days, after which time all species were compared to controls and visually evaluated. Plant response ratings, summarized in Table C, are based on a scale of 0 to 100 where 0 is no effect and 100 is complete control. A dash (-) response means no test result.

[9] = Postemergence, 31 g ai/ha, scale 0 to 100 (0 no effect, 100 complete control)
[10] = Postemergence, 62 g ai/ha, scale 0 to 100 (0 no effect, 100 complete control)
[11] = Postemergence, 125 g ai/ha, scale 0 to 100, 0 no effect, 100 complete control
[12] = Postemergence, 250 g ai/ha, scale 0 to 100
[13] = Preemergence, 62 g ai/ha, scale of 0 to 100, 0 is no effect, 100 is complete control
[14] = Preemergence, 125 g ai/ha, scale 0 to 100, 0 no effect, 100 complete control
[15] = Preemergence, 250 g ai/ha, scale 0 to 100, 0 no effect, 100 complete control
[16] = 125 g ai/ha, scale 0 to 100, 0 no effect, 100 complete control
[17] = 250 g ai/ha, scale 0 to 100, 0 no effect, 100 complete control
[18] = 31 g ai/ha, scale 0 to 100 (0 no effect, 100 complete control)
[19] = 62 g ai/ha, scale 0 to 100 (0 no effect, 100 complete control)
[20] = Postemergence, 250 g ai/ha, scale 0 to 100 (0 no effect, 100 complete control)
[21] = Postemergence, 16 g ai/ha, scale 0 to 100
[22] = Preemergence, 16 g ai/ha, scale 0 to 100 (0 no effect, 100 complete control)
[23] = Preemergence, 31 g ai/ha, scale 0 to 100 (0 no effect, 100 complete control)
[24] = Preemergence, 62 g ai/ha, scale 0 to 100
[25] = Preemergence, 125 g ai/ha, scale 0 to 100
[26] = Preemergence, 250 g ai/ha, scale 0 to 100
[27] = Postemergence, 8 g ai/ha, scale 0 to 100

CCOc1nn(-c2ccc(F)cc2)nc1Cc1ccnc(C(F)F)c1 [Compound 195]
Plant response rating, Barnyardgrass (0 to 100 scale, 0 is no effect, 100 is complete control) ([1]; 250 g ai/ha): 85 | Plant response rating, Cupgrass, Woolly [2, 9]: 50 | Plant response rating, Cupgrass, Woolly [2, 10]: 65 | Plant response rating, Cupgrass, Woolly [2, 11]: 75 | Plant response rating, Cupgrass, Woolly [2, 12]: 75 | Plant response rating, Cupgrass, Woolly ([2]; Preemergence, 31 g ai/ha, scale 0 (no effect) to 100 (complete control)): 20 | Plant response rating, Cupgrass, Woolly [2, 13]: 95 | Plant response rating, Cupgrass, Woolly [2, 14]: 95 | Plant response rating, Cupgrass, Woolly [2, 15]: 98 | Plant response rating, Russian Thistle ([3]; 31 g ai/ha, scale 0 (no effect) to 100 (complete control)): 90 | Plant response rating, Russian Thistle ([3]; 62 g ai/ha, scale of 0 to 100, 0 is no effect, 100 is complete control): 90 | Plant response rating, Russian Thistle [3, 16]: 90 | Plant response rating, Russian Thistle [3, 17]: 90 | Plant response rating, Deadnettle [4, 18]: 100 | Plant response rating, Deadnettle [4, 19]: 100 | Plant response rating, Deadnettle [4, 16]: 100 | Plant response rating, Deadnettle ([4]; 250 g ai/ha, scale 0 to 100): 100 | Plant response rating: Chickweed [5, 18]: 40 | Plant response rating: Chickweed [5, 19]: 60 | Plant response rating: Chickweed [5, 16]: 85 | Plant response rating: Chickweed ([5]; 250 g ai/ha, scale 0 to 100 (0 no effect, 100 complete control)): 90 | Plant response rating, Chickweed ([5]; 16 g ai/ha): 30 | Plant response rating: Pigweed [6, 9]: 65 | Plant response rating: Pigweed [6, 10]: 75 | Plant response rating: Pigweed [6, 11]: 80 | Plant response rating: Pigweed [6, 20]: 95 | Plant response rating, Pigweed [6, 21]: 60 | Plant response rating, Pigweed [6, 22]: 60 | Plant response rating, Pigweed [6, 23]: 60 | Plant response rating, Pigweed [6, 24]: 60 | Plant response rating, Pigweed [6, 25]: 100 | Plant response rating, Pigweed [6, 26]: 95 | Plant response rating: Speedwell [7, 9]: 100 | Plant response rating: Speedwell [7, 10]: 100 | Plant response rating: Speedwell [7, 11]: 100 | Plant response rating: Speedwell [7, 20]: 100 | Plant response rating, Speedwell [7, 21]: 100 | Plant response rating, Speedwell [7, 22]: 30 | Plant response rating, Speedwell [7, 23]: 100 | Plant response rating, Speedwell [7, 24]: 100 | Plant response rating, Speedwell [7, 25]: 100 | Plant response rating, Speedwell [7, 26]: 100 | Plant response rating: Barley, Winter [8, 9]: 10 | Plant response rating: Barley, Winter [8, 10]: 15 | Plant response rating: Barley, Winter [8, 11]: 30 | Plant response rating: Barley, Winter [8, 20]: 45 | Plant response rating, Barley, Winter [8, 21]: 0 | Plant response rating, Barley, Winter [8, 22]: 0 | Plant response rating, Barley, Winter [8, 23]: 0 | Plant response rating, Barley, Winter [8, 24]: 0 | Plant response rating, Barley, Winter [8, 25]: 0 | Plant response rating, Barley, Winter [8, 26]: 20

CCCc1nn(-c2ccc(F)cc2)nc1Cc1ccnc(C(F)(F)F)c1 [Compound 153]
Plant response rating, Barnyardgrass (0 to 100 scale, 0 is no effect, 100 is complete control) ([1]; 250 g ai/ha): 80 | Plant response rating, Oilseed Rape (Oilseed Rape; [15]): 98

CCCc1nn(-c2ccc(C(F)(F)F)c(F)c2)nc1Oc1ccnc(C(F)(F)F)c1 [Compound 185]
Plant response rating, Barnyardgrass (0 to 100 scale, 0 is no effect, 100 is complete control) ([1]; 250 g ai/ha): 90 | Plant response rating, Oilseed Rape (Oilseed Rape; [9]): 10 | Plant response rating, Oilseed Rape (Oilseed Rape; [15]): 100

Cc1nn(-c2ccc(C(F)(F)F)c(F)c2)nc1Cc1ccnc(C(F)(F)F)c1 [Compound 162]
Plant response rating, Barnyardgrass (0 to 100 scale, 0 is no effect, 100 is complete control) ([1]; 125 g ai/ha): 70 | Plant response rating, Oilseed Rape (Oilseed Rape; [15]): 100

Cc1nn(-c2ccc(F)c(F)c2)nc1Oc1ccnc(C(F)(F)F)c1 [Compound 145]
Plant response rating, Barnyardgrass (0 to 100 scale, 0 is no effect, 100 is complete control) ([1]; 250 g ai/ha): 90 | Plant response rating, Cupgrass, Woolly [2, 9]: 20 | Plant response rating, Cupgrass, Woolly [2, 10]: 25 | Plant response rating, Cupgrass, Woolly [2, 11]: 40 | Plant response rating, Cupgrass, Woolly [2, 12]: 75 | Plant response rating, Cupgrass, Woolly ([2]; Preemergence, 31 g ai/ha, scale of 0 to 100, 0 is no effect, 100 is complete control): 55 | Plant response rating, Cupgrass, Woolly [2, 13]: 90 | Plant response rating, Cupgrass, Woolly [2, 14]: 95 | Plant response rating, Cupgrass, Woolly [2, 15]: 98 | Plant response rating, Russian Thistle ([3]; 31 g ai/ha, scale of 0 to 100, 0 is no effect, 100 is complete control): 0 | Plant response rating, Russian Thistle [3, 16]: 90 | Plant response rating, Russian Thistle [3, 17]: 95 | Plant response rating, Deadnettle [4, 18]: 100 | Plant response rating, Deadnettle [4, 19]: 100 | Plant response rating, Deadnettle [4, 16]: 100 | Plant response rating, Deadnettle ([4]; 250 g ai/ha, scale 0 to 100): 100 | Plant response rating: Chickweed [5, 18]: 60 | Plant response rating: Chickweed [5, 19]: 80 | Plant response rating: Chickweed [5, 16]: 90 | Plant response rating, Chickweed ([5]; 8 g ai/ha): 40 | Plant response rating, Chickweed ([5]; 16 g ai/ha): 75 | Plant response rating: Pigweed [6, 9]: 95 | Plant response rating: Pigweed [6, 10]: 100 | Plant response rating: Pigweed [6, 11]: 100 | Plant response rating, Pigweed [6, 27]: 20 | Plant response rating, Pigweed [6, 21]: 70 | Plant response rating: Speedwell [7, 9]: 70 | Plant response rating: Speedwell [7, 10]: 85 | Plant response rating: Speedwell [7, 11]: 100 | Plant response rating, Speedwell [7, 27]: 50 | Plant response rating, Speedwell [7, 21]: 55 | Plant response rating: Barley, Winter [8, 9]: 5 | Plant response rating: Barley, Winter [8, 10]: 10 | Plant response rating: Barley, Winter [8, 11]: 20 | Plant response rating, Barley, Winter [8, 27]: 0 | Plant response rating, Barley, Winter [8, 21]: 5

CCc1nn(-c2ccc(F)cc2)nc1Oc1ccnc(C(F)(F)F)c1 [Compound 166]
Plant response rating, Barnyardgrass (0 to 100 scale, 0 is no effect, 100 is complete control) ([1]; 125 g ai/ha): 70 | Plant response rating, Oilseed Rape (Oilseed Rape; [9]): 5 | Plant response rating, Oilseed Rape (Oilseed Rape; [15]): 100
